Measured values published in ChEMBL document CHEMBL5223120 (Bioorg Med Chem Lett, 2022).

Columns and labels:
Assay type in all cases: ADME, organism-based
Conditions in all cases: in vivo
[1] = Oral bioavailability in mouse at 10 mg/kg by WinNonlin non-compartmental analysis
[2] = AUC in mouse at 10 mg/kg, po by WinNonlin non-compartmental analysis; parameters: dose 10 mg/kg, route po
[3] = Cmax in mouse at 10 mg/kg, po by WinNonlin non-compartmental analysis; parameters: dose 10 mg/kg, route po

Row | bioavailability [1] | AUC ([2]; read-out: AUC) | Cmax [3] | F ([1]; po, 10 mg/kg) | AUC [2] | Compound
1 | 16% | 0.93 µM·h | 200 nM | – | – | CC(C)c1cnc(-c2cc(Cl)ccc2F)cc1Nc1ccncc1C(=O)NCCN
2 | – | – | 1570 nM | 88% | 5.25 µM·h | CC(C)c1cnc(-c2cc(Cl)ccc2F)cc1Nc1ccncc1C(=O)N[C@@H](C)CO
3 | 33% | 2.54 µM·h | 1880 nM | – | – | CC(C)c1cnc(-c2cc(Cl)ccc2F)cc1Nc1ccncc1C(=O)NC[C@H](C)O
4 | 38% | 1.47 µM·h | 990 nM | – | – | CC(C)c1cnc(-c2cc(Cl)ccc2F)cc1Nc1ccncc1C(=O)NCC(N)=O
5 | 87% | 16.2 µM·h | 7070 nM | – | – | CC(C)c1cnc(-c2cc(Cl)ccc2F)cc1Nc1ccncc1C(=O)NC(CO)CO [PF-06952229]
